Tested on: patients with relapsed refractory multiple myeloma (RRMM) refractory to lenalidomide
Experiment: Randomized, controlled, open-label, Phase 3 multicenter study of melflufen+dexamethasone versus pomalidomide+dexamethasone (Example 1)
Type: in vivo, human
Details: for OS / PFS: no stem cell transplant
Procedure: Patients received either melflufen+dexamethasone or pomalidomide+dexamethasone.
Patients were randomized to either one of two arms (see Table 1 below): • Arm A: Melphalan flufenamide (Melflufen) 40 mg on Day 1 and dexamethasone 40 mg on Days 1, 8, 15 and 22 of each 28-day cycle. • Arm B: Pomalidomide 4 mg daily on Days 1 to 21 and dexamethasone 40 mg on Days 1, 8, 15 and 22 of each 28-day cycle.
Dose modifications and delays in therapy were implemented based on patient tolerability as detailed in the protocol. In the event of a cycle delay, unrelated to dexamethasone toxicity, it was recommended to continue dexamethasone weekly.
• Study Type: Interventional (Clinical Trial) • Actual Enrollment: 495 participants • Allocation: Randomized • Intervention Model: Parallel Assignment • Masking: Single (Outcomes Assessor) • Primary Purpose: Treatment • Official Title: A Randomized, Controlled, Open-label, Phase 3 Study of Melflufen/Dexamethasone Compared With Pomalidomide/Dexamethasone for Patients With Relapsed Refractory Multiple Myeloma Who Are Refractory to Lenalidomide
• 1. Progression Free Survival (PFS) [Time Frame: From randomization to time of progression, or, if no progression, 24 months after end of treatment]: To compare the PFS of melflufen plus dexamethasone (Arm A) versus pomalidomide plus dexamethasone (Arm B) as assessed by the Independent Review Committee (IRC) according to the International Myeloma Working Group Uniform Response Criteria (IMWG-URC)
• 1. […] Overall Survival (OS) [Time Frame: From randomization until end of study (2 years after confirmed progression)]: To assess and compare OS in Arm A versus Arm B • 4. Safety and Tolerability: Number of patients with treatment-emergent adverse events, including clinical laboratory and vital signs abnormalities, as assessed by CTCAE v4.0 [Time Frame: From start of dosing until 30 days after last dose]: To assess and compare safety and tolerability in Arm A versus Arm B. Number of patients with treatment-emergent adverse events, including clinical laboratory and vital signs abnormalities, as assessed by CTCAE v4.0 will be presented. No formal statistical analysis will be performed for safety endpoints.
• 1. Male or female, age 18 years or older • 2. A prior diagnosis of multiple myeloma with documented disease progression requiring further treatment at time of screening • 3. Measurable disease defined as any of the following: • Serum monoclonal protein ≥0.5 g/dl by protein electrophoresis. • ≥200 mg/24 hours of monoclonal protein in the urine on 24-hour electrophoresis • Serum free light chain ≥10 mg/dl AND abnormal serum kappa to lambda free light chain ratio • 4. Received 2-4 prior lines of therapy, including lenalidomide and a PI, either sequential or in the same line, and is refractory (relapsed and refractory or refractory) to both the last line of therapy and to lenalidomide (≥10 mg) administered within 18 months prior to randomization. Refractory to lenalidomide is defined as progression while on lenalidomide therapy or within 60 days of last dose, following at least 2 cycles of lenalidomide with at least 14 doses of lenalidomide per cycle • 5. Life expectancy of ≥6 months • 6. Eastern Cooperative Oncology Group (ECOG) performance status ≤2 • 7. […] Participants must agree to ongoing pregnancy testing. All patients must be willing to comply with all requirements of the USA pomalidomide Risk Evaluation and Mitigation Strategy (REMS) program or the pomalidomide Pregnancy Prevention Plan (PPP) • 8. Ability to understand the purpose and risks of the study and provide signed and dated informed consent • 9. 12-lead Electrocardiogram (ECG) with QT interval calculated by Fridericia Formula (QTcF) interval of ≤470 msec Fridericia Formula • 10. […] Must be able to take antithrombotic prophylaxis • 12. Must have, or be willing to have an acceptable central catheter.

[1] = excluding patients who had received a stem cell transplant and progressed in under 36 months (melflufen+dex n=145, pomalidomide+dex n=148)
[2] = subgroup patients under 65 years
[3] = patients 75 or over who received melflufen, pomalidomide comparator worded as patients who had not received a stem cell transplant
[4] = patients who had not received a stem cell transplant as a past treatment (melflufen n=121, pomalidomide n=129), each arm with dexamethasone
[5] = stem cell transplant at least 5 years ago, melflufen in relation to pomalidomide, value below 1 favours melflufen

SMILES: CCOC(=O)[C@H](Cc1ccc(F)cc1)NC(=O)[C@@H](N)Cc1ccc(N(CCCl)CCCl)cc1.Cl [melflufen, L-melphalanyl-4-fluoro-L-phenylalanine ethyl ester]
- median overall survival (OS) [1]: 23.6 months
- OS (subgroup 64 to 74 years): 22.2
- PFS (subgroup 64 to 74 years): 9.3
- OS (subgroup 75 years and over): 14.8
- PFS (subgroup 75 years and over): 9.3
- OS (subgroup age under 75 years): 22.2
- PFS (subgroup age under 75 years): 9.4
- OS [2]: 27.5
- PFS [2]: 10.8
- median PFS [3]: 9.4 months
- median overall survival (OS) [3]: 21.6 months
- median overall survival (OS) [4]: 21.6 months
- median progression free survival (PFS) [4]: 9.3 months
- hazard ratio (PFS) (stem cell transplant 2.5 to 5 years ago, melflufen in relation to pomalidomide, value below 1 favours melflufen): 0.83
- OS hazard ratio [5]: 0.87
- PFS hazard ratio [5]: 0.76

SMILES: Nc1cccc2c1C(=O)N(C1CCC(=O)NC1=O)C2=O (stereo not shown) [pomalidomide, reference compound]
- median overall survival (OS) [1]: 19.8 months
- OS (subgroup 64 to 74 years): 15.0
- PFS (subgroup 64 to 74 years): 3.9
- OS (subgroup 75 years and over): 8.1
- PFS (subgroup 75 years and over): 4.9
- OS (subgroup age under 75 years): 18.2
- PFS (subgroup age under 75 years): 4.3
- PFS [2]: 4.7
- median PFS [3]: 4.6 months
- median overall survival (OS) [3]: 8.3 months
- median overall survival (OS) [4]: 16.5 months
- median progression free survival (PFS) [4]: 4.6 months

From patent US20240307480A1, “MELFLUFEN FOR USE IN THE TREATMENT OF MULTIPLE MYELOMA” (Oncopeptides AB, priority 2021, published 2024)
